Literature values, collected in patent US8753679B2, “Capsule formulation of pirfenidone and pharmaceutically acceptable excipients” (Intermune, Inc., priority 2005, dated 2014).
Read-outs that look alike come from different tables or passages of the source.

Columns and labels:
[1] = tested on: human mesenchymal-like cells (including lung fibroblasts, skin fibroblasts, prostate stromal cells, and renal mesangial cells)
pulmonary fibrosis = conditions: after 4 to 6 months on oral pirfenidone
[2] = tested on: benign prostate hypertrophy; conditions: oral pirfenidone, older men with clinically advanced BPH
[3] = 200 mg single dose on day 1, coated tablet with excipients, 15 patients, serum
[4] = single oral dose 400 mg as four 100 mg capsules of 100% pirfenidone, 10 healthy adult males, plasma
[5] = oral 400 mg, capsule of 100% pirfenidone

Cc1ccc(=O)n(-c2ccccc2)c1 [Pirfenidone, 5-methyl-1-phenyl-2-(1H)-pyridone]
effective levels relative to levels exerting pharmacologically toxic effects on the cells ([1]; graded concentrations in cell culture media): ten to twenty times lower | effect on excessive cell proliferation induced by cytokine growth factors (TGF-β1, bFGF, PDGF, and EGF) ([1]; in vitro cell cultures): pharmacologic inhibition | lung function (pulmonary function tests, VC, DLCO) (pulmonary fibrosis): inhibition or blocking of further deterioration in lung function | observed side effects (after oral administration, drowsiness, gastric nausea or photosensitivity rash): relatively mild | serious adverse reactions (clinical investigations): No serious adverse reactions | response of patients based on objective criteria [2]: functional improvement | AUC4hr [3]: 7300 ± 1600 ng·h/mL | T1/2 [3]: 3.5 ± 2.2 h | Tmax [3]: 1.8 ± 1.1 h | Cmax ([3]; HPLC): 2700 ± 700 ng/mL | AUC6hr [4]: 20.8±10.0 μg/mL-hr | T1/2 [4]: 2.2 ± 0.6 h | Tmax [4]: 0.9 ± 0.3 h | Cmax ([4]; gas chromatography): 6300 ± 2500 ng/mL | T1/2 ([5]; ten human volunteers): 2.87 ± 0.22 h | time at which maximum serum pirfenidone level was reached ([5]; ten human volunteers (FIG. 3)): between one and three hours
